Laboratory results taken from the CheMixHub viscosity set.

Assay: xn = mol fraction of the nth substance listed

CN(C)C=O + Cc1ccccc1
Details | viscosity [mPa·s]
293.15 K, 101 kPa, x1 = 0.0501 | 0.592
293.15 K, 101 kPa, x1 = 0.1001 | 0.607
293.15 K, 101 kPa, x1 = 0.22 | 0.641
293.15 K, 101 kPa, x1 = 0.3122 | 0.668
293.15 K, 101 kPa, x1 = 0.4002 | 0.693
293.15 K, 101 kPa, x1 = 0.5002 | 0.721
293.15 K, 101 kPa, x1 = 0.6111 | 0.751
293.15 K, 101 kPa, x1 = 0.7003 | 0.775
293.15 K, 101 kPa, x1 = 0.8122 | 0.805
293.15 K, 101 kPa, x1 = 0.9002 | 0.828
298.15 K, 101.3 kPa, x1 = 0.1224 | 0.584
298.15 K, 101.3 kPa, x1 = 0.2414 | 0.612
298.15 K, 101.3 kPa, x1 = 0.3485 | 0.639
298.15 K, 101.3 kPa, x1 = 0.4031 | 0.654
298.15 K, 101.3 kPa, x1 = 0.5545 | 0.699
298.15 K, 101.3 kPa, x1 = 0.657 | 0.723
298.15 K, 101.3 kPa, x1 = 0.7413 | 0.742
298.15 K, 101.3 kPa, x1 = 0.8336 | 0.764
298.15 K, 101.3 kPa, x1 = 0.9129 | 0.781
303.15 K, 101.3 kPa, x1 = 0.1224 | 0.55
303.15 K, 101.3 kPa, x1 = 0.2414 | 0.576
303.15 K, 101.3 kPa, x1 = 0.3485 | 0.601
303.15 K, 101.3 kPa, x1 = 0.4031 | 0.615
303.15 K, 101.3 kPa, x1 = 0.5545 | 0.657
303.15 K, 101.3 kPa, x1 = 0.657 | 0.68
303.15 K, 101.3 kPa, x1 = 0.7413 | 0.698
303.15 K, 101.3 kPa, x1 = 0.8336 | 0.718
303.15 K, 101.3 kPa, x1 = 0.9129 | 0.735
303.15 K, 101.33 kPa, x1 = 0.1037 | 0.542
303.15 K, 101.33 kPa, x1 = 0.1731 | 0.556
303.15 K, 101.33 kPa, x1 = 0.2947 | 0.581
303.15 K, 101.33 kPa, x1 = 0.3985 | 0.602
303.15 K, 101.33 kPa, x1 = 0.4729 | 0.618
303.15 K, 101.33 kPa, x1 = 0.6004 | 0.645
303.15 K, 101.33 kPa, x1 = 0.7147 | 0.67
303.15 K, 101.33 kPa, x1 = 0.7974 | 0.688
303.15 K, 101.33 kPa, x1 = 0.8981 | 0.712
308.15 K, 101.3 kPa, x1 = 0.1224 | 0.518
308.15 K, 101.3 kPa, x1 = 0.2414 | 0.541
308.15 K, 101.3 kPa, x1 = 0.3485 | 0.565
308.15 K, 101.3 kPa, x1 = 0.4031 | 0.578
308.15 K, 101.3 kPa, x1 = 0.5545 | 0.617
308.15 K, 101.3 kPa, x1 = 0.657 | 0.638
308.15 K, 101.3 kPa, x1 = 0.7413 | 0.655
308.15 K, 101.3 kPa, x1 = 0.8336 | 0.674
308.15 K, 101.3 kPa, x1 = 0.9129 | 0.69
313.15 K, 101.3 kPa, x1 = 0.1224 | 0.49
313.15 K, 101.3 kPa, x1 = 0.2414 | 0.512
313.15 K, 101.3 kPa, x1 = 0.3485 | 0.534
313.15 K, 101.3 kPa, x1 = 0.4031 | 0.547
313.15 K, 101.3 kPa, x1 = 0.5545 | 0.584
313.15 K, 101.3 kPa, x1 = 0.657 | 0.604
313.15 K, 101.3 kPa, x1 = 0.7413 | 0.619
313.15 K, 101.3 kPa, x1 = 0.8336 | 0.638
313.15 K, 101.3 kPa, x1 = 0.9129 | 0.653
313.15 K, 101.33 kPa, x1 = 0.1037 | 0.491
313.15 K, 101.33 kPa, x1 = 0.1731 | 0.505
313.15 K, 101.33 kPa, x1 = 0.2947 | 0.522
313.15 K, 101.33 kPa, x1 = 0.3985 | 0.543
313.15 K, 101.33 kPa, x1 = 0.4729 | 0.56
313.15 K, 101.33 kPa, x1 = 0.6004 | 0.583
313.15 K, 101.33 kPa, x1 = 0.7147 | 0.604
313.15 K, 101.33 kPa, x1 = 0.7974 | 0.622
313.15 K, 101.33 kPa, x1 = 0.8981 | 0.643

ClC(Cl)=C(Cl)Cl + Cc1ccccc1
303.15 K, 101 kPa
Details | viscosity [mPa·s]
x1 = 0.1502 | 0.551
x1 = 0.2552 | 0.574
x1 = 0.2612 | 0.574
x1 = 0.3392 | 0.597
x1 = 0.3745 | 0.599
x1 = 0.4608 | 0.621
x1 = 0.4715 | 0.629
x1 = 0.5666 | 0.662
x1 = 0.5759 | 0.652
x1 = 0.6428 | 0.691
x1 = 0.6834 | 0.688
x1 = 0.6905 | 0.708
x1 = 0.7448 | 0.706
x1 = 0.7529 | 0.73
x1 = 0.8376 | 0.76
x1 = 0.8395 | 0.738
x1 = 0.9336 | 0.793

O=[N+]([O-])c1ccccc1 + Cc1ccccc1
viscosity [mPa·s], 101 kPa
Details | x1 = 0.115 | x1 = 0.227 | x1 = 0.344 | x1 = 0.457 | x1 = 0.577 | x1 = 0.675 | x1 = 0.787 | x1 = 0.87
298.15 K | 0.622 | 0.702 | 0.803 | 0.894 | 1.03 | 1.169 | 1.374 | 1.542
303.15 K | 0.586 | 0.66 | 0.743 | 0.837 | 0.956 | 1.08 | 1.252 | 1.42
308.15 K | 0.554 | 0.618 | 0.694 | 0.783 | 0.922 | 1.042 | 1.157 | 1.313
